In one data set the test system is MoMLV. Kind of data set: MoMLV replication: LZ1 virus titer by histochemical staining of NIH 3T3 cells for β-galactosidase. It is filed as cell-based, Maloney murine leukemia virus. As to conditions: up to 100 μM, 2 day treatment of LZ1 cells. The text has this:
Panel A -Schematic representation of the MoMLV assay system. […] This cell produces infectious, replication defective virus (designated (LZ1) which carries the LacZ gene. When NIH3T3 cells are exposed to supernatant taken from the LZ1 virus producing cells, they are initially infected and their progeny are detectable by histochemical staining for β-galactosidase. Thus, the titer of the virus produced by the LZ1 cells after treatment with the various agents, can be readily determined by counting the number of blue NIH3T3 cells. Replication competent MoMLV is not detected using this assay system since the lacZ gene product is not present. Panel B - The effect of 6-oxamyristic acid and 13-oxamyristic acid on LZ1 virus production. The results represent the mean (+1 standard deviation) of three independent tests each done in duplicate. Panel C - Number of viable LZ1 producing cells at the end of a 2 day treatment with analog as measured by trypan blue exclusion. The results of duplicate assays were averaged. Panel D - The effects of analog treatment on incorporation of [^3 H]leucine. Cells in duplicate wells were pulse labeled for 4 h following three days of incubation with analog or ethanol (0.1%). Duplicate assays were performed. The results were averaged and expressed as a percentage of the results obtained from untreated cells.
Assay of the Effects of Analogs on the Replication of Maloney Murine Leukemia Virus. The LZ1 titer assay was developed for rapid histochemical quantitation of infectious virus production. In brief, the LZ1 virus-producing cell line was derived by Sanes et al., EMBO J. 5, 3133-3142 (1986), from the .PSI.-2 cell line. .PSI.-2-cells are NIH 3T3 cells that contain a stably integrated packaging mutant (pMOV-.PSI.-) of MoMLV. This mutant has a deletion of 350 nucleotides between the 5' donor splice site for env and the initiator methionine codon for Pr65^gag [Mann et al., Cell 33, 153-159 (1983)]. The LZ1 cell line is a subclone of .PSI.-2 cells that were co-transfectd with pM-MuLV-SV-LacZ [Sanes et al., supra.]and pSVTK neoB and then selected for G418 (Geneticin®) antibiotic resistance and production of defective MoMLV containing the E. coli β-galactosidase gene [Sanes et al., supra.]. The recombinant virus produced by LZ1 cells is capable of primary infection of NIH 3T3 cells but is replication defective [Sanes et al., surpa.]. Infected NIH 3T3 containing the lac-Z gene can be identified by histochemical staining for β-galactosidase activity.
To assess the effects of analog treatment on MoMLV replication, 1 × 10^5 LZ1 producing cells were added to each well of a 24-well tissue culture plate in 1 mL of Dulbecco's Modified Eagle's medium (DME) containing calf serum (final concentration =10%), penicillin (100 IU/mL), streptomycin (100 μg/mL) with or without analog (10-100 μM). After 24 h, the media was removed and fresh serum-containing media ±analog was added. The next day (48 hours after plating), the virus containing supernatant was removed and passed through a 0.2 μm filter. Various size aliquots (25-100 μL of the 1 mL filtrate) were added to 1 × 10^4 NIH 3T3 cells contained in 1 mL of DME/10% calf serum/penicillin/streptomycin. These indicator cells had been plated 24 h earlier in 24 well tissue culture plates. Polybrene (Sigma) was added at the same time as the filtrate so that its final concentration was 10 μg/mL. […]

A further data set relates to uninfected H9 cells. Description: Metabolic labeling tests using uninfected H9 cells. In kind it is cell-based, human. Particulars: 0.1 to 100 μM. Here is the method: Toxicity Studies. These analyses were conducted for both assay systems. Cell survival was determined by trypan-blue exclusion. The number of unstained cells/mL in the treated cultures was divided by the number of unstained cells/mL in the untreated control cultures and expressed as percent control. Protein synthesis was measured at the end of the treatment periods by metabolic labeling for 4 hrs with L-[4,5^3 H(N)]-leucine (2 μCi/mL media, specific activity =140 Ci/mmol). All cells contained in a given well of a 24 well plate were recovered by scraping, the protein precipitated by TCA (final concentration =10%) and the solution subsequently incubated at 100° C. for 5 min prior to passage over glass fiber filters (Whatman). In the case of the H-9 assay, treated or untreated cells were pulsed labeled at the conclusion of the 10 day incubation. For the MoMLV assay, labeling studies were performed on LZ1 virus producing cells at the conclusion of the 2 day treatment period. An additional control test was performed on NIH 3T3 cells that had never been exposed to virus but which had been incubated with media (± analog) for two days. DNA synthesis was assessed on day 10 of the H9 assay. Cells were labeled for 12 h with [5'-^3 H]thymidine (0.5 μCi/mL, specific activity =2 Ci/mmol). All the cells in a well were harvested by scraping, their nucleic acid precipitated with TCA (final concentration =10%), and then collected on glass fiber filters prior to counting.
The cellular toxicity of 13-oxamyristate was analyzed using three independent assays of cell viability. First, viable cell number was determined at the conclusion of the 10 day treatment period using trypan blue exclusion. The percentage of living cells in untreated, HIV-1 infected cultures was reduced by 50% compared to that of untreated, uninfected cells (FIG. 1D). This reflects the cytopathic effects encountered with this strain of HIV-1 [Ratner et al., Nature 313, 277-284 (1985)]. […] To further investigate this hypothesis, the effects of increasing concentrations of the analog on DNA and protein synthesis were determined.

On to `COCCCCCCCCCCCC(=O)O` [13-oxamyristate, 12-(Methoxy)dodecanoic acid], for which the “effect on MoMLV replication” value with MoMLV was “no effect on virus replication”. Besides, in the data set on uninfected H9 cells, the DNA synthetic rates entry was “no significant effects”, the growth rates entry is reported as “no significant effects” and the protein synthetic rates result is reported as “no significant effects”.

For the origin of these results see patent US5073571A, “Method of inhibiting virus” (priority 1989, dated 1991).
